Data from patent publication US20260285888A1, “HETEROCYCLIC COMPOUND AND USE THEREOF” (OTSUKA PHARMACEUTICAL CO., LTD., priority 2023, published 2026).
Like-named read-outs stand apart in the source and are kept apart here.

Key:
HL-60 cells = experiment: in vitro; format: cell-based, human
Procedure, shortened: (§1)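 Cytotoxicity (%) from supernatant LDH activity after ~24 h treatment at 300 μmol/L final, normalised to no-treatment (0%) and lysis buffer (100%). Cells were PMA-differentiated (10 nM, ~72 h) HL-60 in 2% FBS medium; triplicate means.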

[1] = Study for confirmation of conversion to brexpiprazole in a buffer (stability of the evaluation compounds); format: physicochemical; settings: in buffer, average of duplicate; for Concentration of brexpiprazole formed: 60-minute reaction sample; for Concentration of evaluation compound decreased: decrease in 60-minute vs 0-minute reaction sample
Procedure, shortened: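 Compounds (final 1 μmol/L, from 100 μmol/L working solutions) incubated in buffer at 37° C. for 0 or 60 min, in duplicate, after 3 min pre-incubation of the reaction solution. Reactions stopped with acetonitrile/isopropanol (4:1) containing internal standards; compound and formed brexpiprazole quantified against 0.01–1 μmol/L calibration samples.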

in vitro = format: cell-based, human; settings: human, 300 μmol/L, about 24 hours, PMA-differentiated HL-60 cells, LDH, no-treatment 0%, cell lysis buffer 100%, read-out: cytotoxicity (%) Evaluation compound results
Procedure, shortened: as §1

[2] = Dog irritation study (subcutaneous injection site, histopathological examination); format: in vivo; settings: stated as reason for choice as positive control
Description: Male beagle dogs were purchased at the age of 5-7 months from Kitayama Labes Co., Ltd. and used in the experiment after acclimatization. The breeding environment was as follows: feeding: 250 g of solid feed once a day, water intake: unlimited, number of animals per cage: 1, temperature: 21-25° C., humidity: 50-70%, lighting time: 7:00-19:00. The test formulation was subcutaneously administered to dogs anesthetized with 25 mg/kg thiopental sodium using a plastic syringe at a dose of 10 mg/kg per formulation, changing the position on the back. […] The collected tissues were fixed in 10% neutral buffered formalin, and hematoxylin and eosin-stained specimens were prepared for histopathological examination.

[3] = human, differentiated hl-60 cells, 24 h, 300 µM

| Compound | Concentration of brexpiprazole formed [1] | Concentration of evaluation compound decreased [1] | cytotoxicity at 24 h, 300 µM (in vitro; differentiated hl-60 cells) | other results |
| --- | --- | --- | --- | --- |
| CCOP(=O)([O-])OC[N+]1(CCCCOc2ccc3ccc(=O)[nH]c3c2)CCN(c2cccc3sccc23)CC1 [EX 3, (4-(benzo[b]thiophen-4-yl)-1-(4-((2-oxo-1,2-dihydroquinolin-7-yl)oxy)butyl)piperazin-1-ium-1-yl)methyl ethyl phosphate] | 0 nM | 10 nM |  | cytotoxicity (%) Evaluation compound results (HL-60 cells; 300 μmol/L, about 24 hours, PMA-differentiated HL-60 cells, LDH, no-treatment 0%, cell lysis buffer 100%): −7% |
| COCCOCCOP(=O)([O-])OC[N+]1(CCCCOc2ccc3ccc(=O)[nH]c3c2)CCN(c2cccc3sccc23)CC1 [EX 7, (4-(benzo[b]thiophen-4-yl)-1-(4-((2-oxo-1,2-dihydroquinolin-7-yl)oxy)butyl)piperazin-1-ium-1-yl)methyl (2-(2-methoxyethoxy)ethyl)phosphate] | 0 nM | -60 nM |  | cytotoxicity (%) Evaluation compound results (HL-60 cells; [3]): −4% |
| COCCN(CCOC)P(=O)([O-])OC[N+]1(CCCCOc2ccc3ccc(=O)[nH]c3c2)CCN(c2cccc3sccc23)CC1 [EX 153, (4-(benzo[b]thiophen-4-yl)-1-(4-((2-oxo-1.2-dihydroquinolin-7-yl)oxy)butyl)piperazin-1-ium-1-yl)methyl bis(2-methoxyethyl)phosphoramidate] | 0 nM | -10 nM |  | cytotoxicity at 24 h, 300 µM (in vitro): -7% |
| CCOC(=O)CNP(=O)([O-])OC[N+]1(CCCCOc2ccc3ccc(=O)[nH]c3c2)CCN(c2cccc3sccc23)CC1 [EX 154, (4-(benzo[b]thiophen-4-yl)-1-(4-((2-oxo-1,2-dihydroquinolin-7-yl)oxy)butyl)piperazin-1-ium-1-yl)methyl (2-ethoxy-2-oxoethyl)phosphoramidate] | 0 nM | 20 nM | 4% |  |
| CC(C)(C)OC(=O)CNP(=O)([O-])OC[N+]1(CCCCOc2ccc3ccc(=O)[nH]c3c2)CCN(c2cccc3sccc23)CC1 [EX 155, (4-(benzo[b]thiophen-4-yl)-1-(4-((2-oxo-1,2-dihydroquinolin-7-yl)oxy)butyl)piperazin-1-ium-1-yl)methyl (2-(tert-butoxy)-2-oxoethyl)phosphoramidate] | 0 nM | 160 nM | -3% |  |
| CCOC(=O)[C@H](C)NP(=O)([O-])OC[N+]1(CCCCOc2ccc3ccc(=O)[nH]c3c2)CCN(c2cccc3sccc23)CC1 [EX 156, (4-(benzo[b]thiophen-4-yl)-1-(4-((2-oxo-1,2-dihydroquinolin-7-yl)oxy)butyl)piperazin-1-ium-1-yl)methyl (S)-(1-ethoxy-1-oxopropan-2-yl)phosphoramidate] | 0 nM | 170 nM | -9% |  |
| C[C@H](NP(=O)([O-])OC[N+]1(CCCCOc2ccc3ccc(=O)[nH]c3c2)CCN(c2cccc3sccc23)CC1)C(=O)OC(C)(C)C [EX 157, (4-(benzo[b]thiophen-4-yl)-1-(4-((2-oxo-1,2-dihydroquinolin-7-yl)oxy)butyl)piperazin-1-ium-1-yl)methyl (S)-(1-(tert-butoxy)-1-oxopropan-2-yl)phosphoramidate] | 0 nM | 80 nM | -4% |  |
| C[C@H](NP(=O)([O-])OC[N+]1(CCCCOc2ccc3ccc(=O)[nH]c3c2)CCN(c2cccc3sccc23)CC1)C(N)=O [EX 158, (4-(benzo[b]thiophen-4-yl)-1-(4-((2-oxo-1,2-dihydroquinolin-7-yl)oxy)butyl)piperazin-1-ium-1-yl)methyl (S)-(1-amino-1-oxopropan-2-yl)phosphoramidate] | 0 nM | 70 nM | -3% |  |
| CC(C)OC(=O)[C@H](C)NP(=O)([O-])OC[N+]1(CCCCOc2ccc3ccc(=O)[nH]c3c2)CCN(c2cccc3sccc23)CC1 [EX 159, (4-(benzo[b]thiophen-4-yl)-1-(4-((2-oxo-1,2-dihydroquinolin-7-yl)oxy)butyl)piperazin-1-ium-1-yl)methyl (S)-(1-isopropoxy-1-oxopropan-2-yl)phosphoramidate] | 0 nM | 60 nM | -1% |  |
| O=C(OCOP(=O)([O-])OC[N+]1(CCCCOc2ccc3ccc(=O)[nH]c3c2)CCN(c2cccc3sccc23)CC1)N1CCOCC1 [EX 160, (4-(benzo[b]thiophen-4-yl)-1-(4-((2-oxo-1,2-dihydroquinolin-7-yl)oxy)butyl)piperazin-1-ium-1-yl)methyl (((morpholine-4-carbonyl)oxy)methyl) phosphate] | 0 nM | -10 nM | 9% |  |
| CCCCCC(=O)OCn1c(=O)ccc2ccc(OCCCCN3CCN(c4cccc5sccc45)CC3)cc21 [Reference Example 3 compound, (7-(4-(4-(benzo[b]thiophen-4-yl)piperazin-1-yl)butoxy)-2-oxoquinolin-1(2H)-yl)methyl hexanoate] |  |  |  | irritation when subcutaneously administered to dogs [2]: showed irritation |
| O=C(OC[N+]1(CCCCOc2ccc3ccc(=O)[nH]c3c2)CCN(c2cccc3sccc23)CC1)N1CCCCC1 [Reference Example 4 compound, reference compound] |  |  |  | cytotoxicity compared with the controls (in words) (HL-60 cells; 300 μmol/L, about 24 hours, HL-60 cells): stronger cytotoxicity than that of the Reference Example 3 compound |
| (4-(benzo[b]thiophen-4-yl)-1-(4-(2-oxo-1,2-dihydroquinolin-7-yl)oxy)butyl)piperazin-1-ium-1-yl)methyl (5-bromopentyl) phosphate [EX 114] |  |  |  | cytotoxicity (%) Evaluation compound results (HL-60 cells; [3]): 14% |
| (4-(benzo[b]thiophen-4-yl)-1-(4-((2-oxo-1,2-dihydroquinolin-7-yl)oxy)butyl)piperazin-1-ium-1-yl)methyl(2-(2-butoxyethoxy)ethyl) phosphate [EX 99] | 0 nM | 0 nM |  | cytotoxicity (%) Evaluation compound results (HL-60 cells; [3]): −6% |
| (4-(benzo[b]thiophen-4-yl)-1-((4-((2-oxo-1,2-dihydroquinolin-7-yl)oxy)butyl)piperazin-1-ium-1-yl)methyl hydrogen phosphate [EX 1] | 0 nM | 0 nM |  | cytotoxicity (%) Evaluation compound results (HL-60 cells; [3]): −7% |
